According to the supplement of paper PMC5908809:

Legend:
Assay in all cases: percent inhibition of viability; higher = more inhibition
Settings in all cases: 72 h
NK-YS (IL-2 2.5 ng/mL) = test system: NK-YS (IL-2 2.5 ng/mL)
DERL-7 (IL-2 2.5 ng/mL) = test system: DERL-7 (IL-2 2.5 ng/mL)
[1] = test system: normal primary NK cells, pool 1 (3 donors), resting (IL-2 0 ng/mL)
KAI3 (IL-2 2.5 ng/mL) = test system: KAI3 (IL-2 2.5 ng/mL)
NKL (IL-2 2.5 ng/mL) = test system: NKL (IL-2 2.5 ng/mL)
NK-92 (IL-2 2.5 ng/mL) = test system: NK-92 (IL-2 2.5 ng/mL)
YT (IL-2 2.5 ng/mL) = test system: YT (IL-2 2.5 ng/mL)
[2] = test system: normal primary NK cells, pool 2 (3 donors) (IL-2 2.5 ng/mL)
SNK-6 (IL-2 2.5 ng/mL) = test system: SNK-6 (IL-2 2.5 ng/mL)
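Also: normalised to DMSO-only wells as negative and benzethonium chloride as positive control.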

## O=C(NOCC1CC1)c1ccc(F)c(F)c1Nc1ccc(I)cc1Cl (max concentration tested 10000 nM)
NK-YS (IL-2 2.5 ng/mL); 1 nM
  percent inhibition of viability: 3.04%
NK-YS (IL-2 2.5 ng/mL); 10 nM
  percent inhibition of viability: 1.78%
NK-YS (IL-2 2.5 ng/mL); 100 nM
  percent inhibition of viability: 6.53%
NK-YS (IL-2 2.5 ng/mL); 1000 nM
  percent inhibition of viability: 13.3%
NK-YS (IL-2 2.5 ng/mL); 10000 nM
  percent inhibition of viability: 59.9%
DERL-7 (IL-2 2.5 ng/mL); 1 nM
  percent inhibition of viability: 2.61%
DERL-7 (IL-2 2.5 ng/mL); 10 nM
  percent inhibition of viability: 5.1%
DERL-7 (IL-2 2.5 ng/mL); 100 nM
  percent inhibition of viability: 12.3%
DERL-7 (IL-2 2.5 ng/mL); 1000 nM
  percent inhibition of viability: 29.5%
DERL-7 (IL-2 2.5 ng/mL); 10000 nM
  percent inhibition of viability: 78%
[1]; 1 nM
  percent inhibition of viability: -5.53%
[1]; 10 nM
  percent inhibition of viability: 0.69%
[1]; 100 nM
  percent inhibition of viability: 6.91%
[1]; 1000 nM
  percent inhibition of viability: 8.17%
[1]; 10000 nM
  percent inhibition of viability: 44.4%
KAI3 (IL-2 2.5 ng/mL); 1 nM
  percent inhibition of viability: 15%
KAI3 (IL-2 2.5 ng/mL); 10 nM
  percent inhibition of viability: 14.8%
KAI3 (IL-2 2.5 ng/mL); 100 nM
  percent inhibition of viability: 26.2%
KAI3 (IL-2 2.5 ng/mL); 1000 nM
  percent inhibition of viability: 27.5%
KAI3 (IL-2 2.5 ng/mL); 10000 nM
  percent inhibition of viability: 80.7%
NKL (IL-2 2.5 ng/mL); 1 nM
  percent inhibition of viability: 9.41%
NKL (IL-2 2.5 ng/mL); 10 nM
  percent inhibition of viability: 19%
NKL (IL-2 2.5 ng/mL); 100 nM
  percent inhibition of viability: 33.2%
NKL (IL-2 2.5 ng/mL); 1000 nM
  percent inhibition of viability: 57.9%
NKL (IL-2 2.5 ng/mL); 10000 nM
  percent inhibition of viability: 83.2%
NK-92 (IL-2 2.5 ng/mL); 1 nM
  percent inhibition of viability: 2.8%
NK-92 (IL-2 2.5 ng/mL); 10 nM
  percent inhibition of viability: 6.04%
NK-92 (IL-2 2.5 ng/mL); 100 nM
  percent inhibition of viability: -10.5%
NK-92 (IL-2 2.5 ng/mL); 1000 nM
  percent inhibition of viability: -0.9%
NK-92 (IL-2 2.5 ng/mL); 10000 nM
  percent inhibition of viability: 95.2%
YT (IL-2 2.5 ng/mL); 1 nM
  percent inhibition of viability: 1.25%
YT (IL-2 2.5 ng/mL); 10 nM
  percent inhibition of viability: 1.46%
YT (IL-2 2.5 ng/mL); 100 nM
  percent inhibition of viability: 5.39%
YT (IL-2 2.5 ng/mL); 1000 nM
  percent inhibition of viability: 14.5%
YT (IL-2 2.5 ng/mL); 10000 nM
  percent inhibition of viability: 82.6%
[2]; 1 nM
  percent inhibition of viability: -2.72%
[2]; 10 nM
  percent inhibition of viability: -4.8%
[2]; 100 nM
  percent inhibition of viability: -4.96%
[2]; 1000 nM
  percent inhibition of viability: 4.5%
[2]; 10000 nM
  percent inhibition of viability: 21%
SNK-6 (IL-2 2.5 ng/mL); 1 nM
  percent inhibition of viability: -8.27%
SNK-6 (IL-2 2.5 ng/mL); 10 nM
  percent inhibition of viability: -11.4%
